Six compounds from patent US9890185B2, “Urea derivatives useful as kinase inhibitors” (Respivert Limited, priority 2013, dated 2018) can be followed below.

Test [1] addresses c-Src (Homo sapiens (Human), UniProt P12931). In words: c-Src enzyme inhibition (FRET, Z-LYTE). In kind it is biochemical. The method in brief: (§1)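 Enzyme (c-Src 3000 ng/mL, Syk 2000 ng/mL, as added solutions) was preincubated with compound for 2 hr at RT, then FRET peptide and ATP (added solution 800 μM for c-Src, 60 μM for Syk) for 1 hr. Protease development 1 hr; coumarin/fluorescein emission ratio gave % inhibition, IC50 from concentration-response.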

The test system of test [2] is PBMCs. In words: Cell mitosis assay in PBMCs (assay g). The class given is cell-based. The following applies: Homo sapiens, PBMC, test compound 5 μg/mL. The method in brief:
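Human PBMCs from healthy donors, stimulated with 2% PHA for 48 hr, then exposed to test compounds for 20 hr, with demecolcine (0.1 μg/mL) added 2 hr before harvest. Cells fixed/permeabilised, stained for phospho-histone 3 and propidium iodide, and read by flow cytometry gated on lymphocytes. % mitosis inhibition vs 0.5% DMSO vehicle.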

Test [3] has as its target GSK 3α (Homo sapiens (Human), UniProt P49840). In words: GSK 3α enzyme inhibition (FRET, Z-LYTE, Method 2). The class given is biochemical. To be noted: read-out: IC50 Values for Enzyme Inhibition, GSK3α. The method in brief: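 Human GSK3α (500 ng/mL) preincubated with compound (4, 0.4, 0.04 or 0.004 μg/mL) at RT for 2 h (Method 1) or 105 min (Method 2). Then FRET peptide (8 μM) and ATP (40 μM) added for 1 h, followed by protease development for 1 h. IC50 from the coumarin/fluorescein emission ratio relative to uninhibited control.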

The target in test [4] is Syk (Homo sapiens (Human), UniProt P43405). In words: Syk enzyme inhibition (FRET, Z-LYTE). In kind it is biochemical. The method in brief:
as §1

The test system of test [5] is d-U937 cells. Briefly: Accumulation of β catenin in d-U937 cells (assay m). In kind it is cell-based, human. The following applies: percentage relative to Reference Compound at 1 μg/mL. The method in brief:
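PMA-differentiated (100 ng/mL, 48–72 hr) human U937 macrophage-type cells treated with test compound or vehicle for 18 hr. β-catenin measured by in-cell ELISA (anti-β-catenin, HRP secondary, TMB, OD450–655). Signal corrected for cell number by dividing by crystal violet OD595.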

For test [6], the system named is PBMCs. In words: IL-2 release in CD3/CD28 stimulated PBMC cells (assay c). The class given is cell-based. To be noted: Homo sapiens, read-out: IC50 Values for Inhibition of Cytokine Release, PBMCs IL-2. The method in brief:
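Compound added to human PBMCs on anti-CD3/anti-CD28-coated wells (0.3 and 3 μg/mL respectively); 3-day culture. Sandwich ELISA of supernatant IL-2 or IFN gamma gives the read-out, with IC50 derived from the dose-response curve.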

GSK 3α, sequence (P49840 whole entry): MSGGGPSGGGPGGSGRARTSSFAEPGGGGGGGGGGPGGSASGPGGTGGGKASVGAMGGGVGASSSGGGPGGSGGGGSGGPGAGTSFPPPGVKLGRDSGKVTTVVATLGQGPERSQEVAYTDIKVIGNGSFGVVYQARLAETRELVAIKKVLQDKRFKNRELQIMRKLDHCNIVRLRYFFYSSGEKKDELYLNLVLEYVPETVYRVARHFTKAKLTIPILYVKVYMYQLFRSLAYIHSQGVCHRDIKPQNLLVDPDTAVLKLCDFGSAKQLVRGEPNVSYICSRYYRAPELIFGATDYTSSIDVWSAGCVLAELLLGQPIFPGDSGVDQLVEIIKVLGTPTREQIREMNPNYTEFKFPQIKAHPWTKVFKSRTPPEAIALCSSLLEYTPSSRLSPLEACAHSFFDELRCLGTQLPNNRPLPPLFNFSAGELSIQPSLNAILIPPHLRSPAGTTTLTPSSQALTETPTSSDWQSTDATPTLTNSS
c-Src, sequence (P12931 whole entry, looked up): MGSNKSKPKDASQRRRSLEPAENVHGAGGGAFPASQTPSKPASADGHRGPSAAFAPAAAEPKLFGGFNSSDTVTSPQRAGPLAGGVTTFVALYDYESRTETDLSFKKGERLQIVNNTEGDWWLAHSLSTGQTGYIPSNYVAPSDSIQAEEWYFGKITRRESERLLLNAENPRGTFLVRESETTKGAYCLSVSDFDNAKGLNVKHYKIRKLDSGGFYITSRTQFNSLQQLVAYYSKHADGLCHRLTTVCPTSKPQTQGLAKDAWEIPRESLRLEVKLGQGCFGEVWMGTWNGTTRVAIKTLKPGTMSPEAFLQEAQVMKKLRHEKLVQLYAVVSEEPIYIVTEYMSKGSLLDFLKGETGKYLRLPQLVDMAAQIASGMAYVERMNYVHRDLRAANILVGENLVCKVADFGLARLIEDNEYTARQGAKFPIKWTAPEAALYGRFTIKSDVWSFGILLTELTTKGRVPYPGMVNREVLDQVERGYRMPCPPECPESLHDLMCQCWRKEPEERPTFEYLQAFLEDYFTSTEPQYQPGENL

In the case of `COc1c(CC(N)=O)cc(C(C)(C)C)cc1NC(=O)Nc1ccc(Oc2ccnc(NCc3ccccn3)c2)c2ccccc12` [38(d), 2-(5-(tert-Butyl)-2-methoxy-3-(3-(4-((2-((pyridin-2-ylmethyl)amino)pyridin-4-yl)oxy)naphthalen-1-yl)ureido)phenyl)acetamide], the IC50 in test [1] is more than 1570 nM; in test [3], 2240 nM; in test [4], more than 1650 nM; in test [6], 1650 nM. Besides, in test [2], the inhibition at 5 µg/mL was found to be 28.1%. The “% β-catenin induction” value came to 2.5% in test [5] (test compound 1 μg/mL), 19.5% in test [5] (test compound 5 μg/mL) and 30.0% in test [5] (test compound 10 μg/mL).

For the compound `COc1c(CC(N)=O)cc(C(C)(C)C)cc1NC(=O)Nc1ccc(Oc2ccnc(Nc3cc(C)cc(C)c3)c2)c2ccccc12` [38(f), 2-(5-(tert-Butyl)-3-(3-(4-((2-((3,5-dimethylphenyl)amino)pyridin-4-yl)oxy)naphthalen-1-yl)ureido)-2-methoxyphenyl)acetamide], the IC50 amounted to 69 nM in test [1], 14800 nM in test [3], 837 nM in test [4] and 75.8 nM in test [6]. The same compound displayed an inhibition at 5 µg/mL in test [2] of 37.8%. Besides, the “% β-catenin induction” value in test [5] (test compound 1 μg/mL) was 2.0%; in test [5] (test compound 5 μg/mL), 3.3%; in test [5] (test compound 10 μg/mL), 8.3%.

As for `COc1c(CC(N)=O)cc(C(C)(C)C)cc1NC(=O)Nc1ccc(Oc2ccnc(Nc3ccn(C)n3)c2)c2ccccc12` [38(o), 2-(5-(tert-Butyl)-2-methoxy-3-(3-(4-((2-((1-methyl-1H-pyrazol-3-yl)amino)pyridin-4-yl)oxy)naphthalen-1-yl)ureido)phenyl)acetamide], the IC50 is 47 nM in test [1], 1050 nM in test [3], 381 nM in test [4] and 60.8 nM in test [6]. In test [2], this compound returned an inhibition at 5 µg/mL of 83.2%. The “% β-catenin induction” value in test [5] (test compound 1 μg/mL) was determined as 13.0%; in test [5] (test compound 5 μg/mL) it was 38.0%; in test [5] (test compound 10 μg/mL), 35.0%.

With `COCCOCCOCCOc1cc(Nc2cc(Oc3ccc(NC(=O)Nc4cc(C(C)(C)C)cc(P(C)(C)=O)c4OC)c4ccccc34)ccn2)cc(OC)c1` [Example 2, 1-(5-(tert-Butyl)-3-(dimethylphosphoryl)-2-methoxyphenyl)-3-(4-((2-((3-methoxy-5-(2-(2-(2-methoxyethoxy)ethoxy)ethoxy)phenyl)amino)pyridin-4-yl)oxy)naphthalen-1-yl)urea], the IC50 was 11 nM in test [1], 2820 nM in test [3], 53 nM in test [4] and 76.1 nM in test [6]. Also, 5 µg/mL produced 58.9% inhibition in test [2]. Also, the “% β-catenin induction” value was 4.0% in test [5] (test compound 1 μg/mL), 32.5% in test [5] (test compound 5 μg/mL) and 31.5% in test [5] (test compound 10 μg/mL).

With `COc1c(CS(C)(=O)=O)cc(C(C)(C)C)cc1NC(=O)Nc1ccc(Oc2ccnc(Nc3ccccc3)c2)c2ccccc12` [Example 19, 1-(5-(tert-Butyl)-2-methoxy-3-((methylsulfonyl)methyl)phenyl)-3-(4-((2-(phenylamino)pyridin-4-yl)oxy)naphthalen-1-yl)urea], the IC50 in test [1] was 145 nM; in test [3] it was more than 16000 nM; in test [4] it was 189 nM; in test [6], 257 nM. The same compound displayed an inhibition at 5 µg/mL in test [2] of 36.9%. The “% β-catenin induction” value is reported as 2.5% in test [5] (test compound 1 μg/mL), 9.0% in test [5] (test compound 5 μg/mL) and 13.0% in test [5] (test compound 10 μg/mL).

In the case of `CNC(=O)Cc1cc(C(C)(C)C)cc(NC(=O)Nc2ccc(Oc3ccnc(Nc4cccc(OC)c4)c3)c3ccccc23)c1OC` [38(h), 2-(5-(tert-Butyl)-2-methoxy-3-(3-(4-((2-((3-methoxyphenyl)amino)pyridin-4-yl)oxy)naphthalen-1-yl)ureido)phenyl)-N-methylacetamide], the IC50 was 181 nM in test [1], more than 14600 nM in test [3], 1080 nM in test [4] and 160 nM in test [6]. For the same compound, the inhibition at 5 µg/mL in test [2] is 30.3%. The “% β-catenin induction” value in test [5] (test compound 1 μg/mL) was determined as 1.5%; in test [5] (test compound 5 μg/mL) it was 4.0%; in test [5] (test compound 10 μg/mL), 6.0%.
